{"source": "paper PMC9732821", "about": "“Neurotrophic Activity and Its Modulation by Zinc Ion of a Dimeric Peptide Mimicking the Brain-Derived Neurotrophic Factor N-Terminal Region” (ACS Chemical Neuroscience, 2022)", "molecules": {"B1": {"name": "brain-derived neurotrophic factor (protein, UniProt P23560 1-247, looked up)", "chain": "MTILFLTMVISYFGCMKAAPMKEANIRGQGGLAYPGVRTHGTLESVNGPKAGSRGLTSLADTFEHVIEELLDEDQKVRPNEENNKDADLYTSRVMLSSQVPLEPPLLFLLEEYKNYLDAANMSMRVRRHSDPARRGELSVCDSISEWVTAADKKTAVDMSGGTVTVLEKVPVSKGQLKQYFYETKCNPMGYTKEGCRGIDKRHWNSQCRTTQSYVRALTMDSKKRIGWRFIRIDTSCVCTLTIKRGR", "modifications": "full-length", "notes": "full-length human BDNF produced recombinantly in Escherichia coli"}}, "system": "TrkB-EGFP", "test": "TrkB dimerization, number & brightness (N&B) in living SH-SY5Y cells", "assay_type": "cell-based, human", "conditions": "150 ng/mL BDNF or 10 μM d-bdnf, within 30 min; f-EGFP monomeric reference; two independent experiments", "protocol": "Figure 1 Activation of the TrkB receptor by BDNF and its mimetic peptide ligands. (A) Schematic picture of the human TrkB receptor fused to the EGFP construct (hTrkB-EGFP); recombinant human mature BDNF (hBDNF); monomeric peptide, m-bdnf; dimeric peptide, d-bdnf; scrambled s-bdnf. (B) WB showing Tyr phosphorylation (p-Tyr, top) and total TrkB levels (bottom) in SH-SY5Y cells transfected with hTrkB-EGFP in the absence (ctrl) or presence of 10 min stimulation with 150 ng/mL BDNF or 10 μM m-bdnf, d-bdnf, or s-bdnf. Samples were immunoprecipitated (IP) with the anti-GFP antibody before WB. […] (C) Scatter dot plot of ERK (left) and AKT (right) phosphorylation levels detected in differentiated SH-SY5Y cells, after stimulation with the same treatments as in (B). […] (G) Bar graph of mean ± SD ‘B-1’ values retrieved from N&B analysis for all the different conditions measured. […]\nThe same TrkB-GFP expressing SH-SY5Y cells were used to deeper investigate the mechanism of TrkB activation induced by d-bdnf, using an advanced imaging approach in living cells. We exploited a fluorescence correlation technique, which directly correlates the brightness of each fluorescent pixel of the image to the number of TrkB molecules averagely populating that pixel during the observation time (number & brightness technique—N&B[34],[35]). […]"}
{"molecule": "HSDPARRGELSVC-C-VSLEGRRAPDSH (disulfide) [d-bdnf]", "values": [{"measurement": "TrkB monomer/dimer state at plasma membrane", "value": "shift toward the dimeric form"}]}
{"molecule": "B1", "values": [{"measurement": "TrkB monomer/dimer state at plasma membrane", "value": "shift toward the dimeric form"}]}
